# Data: patent US7276511B2, “Benzylamine derivative” (Zeria Pharmaceutical Co., Ltd., priority 2003, dated 2007)
# Structures can show the parent of a compound that is named as a salt.
# Target: NK-1 receptor (Homo sapiens, UniProt P25103)
# Experiment: NK-1 receptor-binding test ([3H]-Substance P, hNK1-CHO cells)
# Design: expressed in transfected cells; host or cells: CHO-K1 cells (ATCC: CCL-61), G418-resistant, hNK1-CHO
# Settings: not given
# Method: 1. NK-1 Receptor-binding Test
# 1) Preparation of Human NK-1 Receptor Expression Cells
# FuGene 6 transfection reagent (Boegringer Mannheim) (3 μL) was diluted in an F-12 culture broth (97 μL), and pCR3.1 plasmid to which human NK-1 receptor cDNA had been introduced (Invitrogen) (10 μL) was added thereto. The mixture was mixed and incubated for 15 minutes (transfection reagent). CHO-K1 cells (ATCC: CCL-61) were cultured for 24 hours, and the whole reagent prepared above was added to the cultured CHO-K1 cells ([…]). Subsequently, culture was performed in the presence of G418 (Stratagene), and the resistant cells were employed as cells into which human NK-1 receptor gene was introduced (hNK1-CHO).
# 2) Subcultivation of hNK1-CHO Cells
# The hNK1-CHO cells were treated with trypsin-EDTA and subcultivated in an F-12 culture broth (containing 10% fetal bovine serum, 10 mM HEPES, 100 U/mL, penicillin, 100 μg/mL streptmycin, 400 μg/mL G418) in a 75-cm^2 flask (FALCON). Cells to be employed in the receptor-binding experiment were added to a 24-well plate (IWAKI) at 1×10^5 cells/well, and subcultured for 48 hours at 37° C. under 95% […] and 5% CO2.
# 3) Receptor-binding Experiment
# When the hNK1-CHO cells became subconfluent on the 24-well plate, an F-12 culture broth (containing 10 mM HEPES and 0.1% fetal bovine serum) (450 μL), [^3H]-Substance P (Amersham, final concentration 0.5 nM), and a test compound were added to the cells, and the mixture was incubated for 40 minutes at 37° C. For the measurement of non-specific binding, L703606 (Sigma) was added instead of the test compound. After completion of incubation, the mixture was washed with ice-cooled phosphate buffered saline containing 0.1% fetal bovine serum, and the cells were lysed with 1N NaOH (0.5 mL). The lysate was transfered to a plastic vial containing UltimaGold MV (5 mL), and the radioactivity was determined by means of a liquid liquid scintillation counter (Packard, 2000CA).
# Percent radioactive ligand-receptor binding inhibition of each test compound was calculated by use of the following equation, and IC50 (nM) was determined through pseudo-Hill analysis.
# Percent inhibition (%)=[1−(C−A)/(B−A)]×100
# A: Radioactivity attributed to non-specific binding
# B: Radioactivity without test compound
# C: Radioactivity with test compound
# Sequence of NK-1 receptor (P25103 whole entry): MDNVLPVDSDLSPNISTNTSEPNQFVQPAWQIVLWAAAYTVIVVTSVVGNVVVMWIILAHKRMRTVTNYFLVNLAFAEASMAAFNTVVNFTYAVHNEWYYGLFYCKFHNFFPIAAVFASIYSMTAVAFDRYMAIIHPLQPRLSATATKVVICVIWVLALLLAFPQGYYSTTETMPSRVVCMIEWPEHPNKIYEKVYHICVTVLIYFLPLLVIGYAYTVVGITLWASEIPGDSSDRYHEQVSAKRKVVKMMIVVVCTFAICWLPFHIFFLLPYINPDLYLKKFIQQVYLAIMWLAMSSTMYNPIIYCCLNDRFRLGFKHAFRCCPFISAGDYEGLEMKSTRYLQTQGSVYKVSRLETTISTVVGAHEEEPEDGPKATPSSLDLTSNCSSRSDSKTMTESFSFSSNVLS
row,Structure (SMILES),IC50
1,"CN(C[C@](CCCN1CCC2(CC1)c1ccccc1C[S@+]2[O-])(c1ccc(Cl)c(Cl)c1)N(C)C(=O)Oc1cccc(F)c1)C(=O)CC(F)(F)F [Compound No. 634, 3-fluorophenyl{1-(3,3,3-trifluoro-N-methylpropanamido)-2-(S)-(3,4-dichlorophenyl)-5-[spiro(benzo(c)thiophene-(2S)-oxido-1(3H),4′-piperidin)-1′-yl]pentan-2-yl}methylcarbamate hydrochloride]",2 nM
2,"COc1ccccc1OC(=O)N(C)[C@](CCCN1CCC2(CC1)c1ccccc1C[S@+]2[O-])(CN(C)C(=O)CC(F)(F)F)c1ccc(Cl)c(Cl)c1 [Compound No. 636, 2-methoxyphenyl{1-(3,3,3-trifluoro-N-methylpropanamido)-2-(S)-(3,4-dichlorophenyl)-5-[spiro(benzo(c)thiophene-(2S)-oxido-1(3H),4′-piperidin)-1′-yl]pentan-2-yl}methylcarbamate hydrochloride]",0.9 nM
3,"CN(C[C@](CCCN1CCC2(CC1)c1ccccc1C[S@+]2[O-])(c1ccc(Cl)c(Cl)c1)N(C)C(=O)Oc1ccc(F)c(F)c1)C(=O)CC(F)(F)F [compound 655, 3,4-difluorophenyl{1-(3,3,3-trifluoro-N-methylpropanamido)-2-(S)-(3,4-dichlorophenyl)-5-[spiro(benzo(c)thiophene-(2S)-oxido-1(3H),4′-piperidin)-1′-yl]pentan-2-yl}methylcarbamate hydrochloride]",1.3 nM
4,"COc1cccc(OC(=O)N(C)[C@](CCCN2CCC3(CC2)c2ccccc2C[S@+]3[O-])(CN(C)C(=O)CC(F)(F)F)c2ccc(Cl)c(Cl)c2)c1 [Compound No. 637, 3-methoxyphenyl{1-(3,3,3-trifluoro-N-methylpropanamido)-2-(S)-(3,4-dichlorophenyl)-5-[spiro(benzo(c)thiophene-(2S)-oxido-1(3H), 41-piperidin)-1′-yl]pentan-2-yl}methylcarbamate hydrochloride]",1.7 nM
5,"CN(C[C@](CCCN1CCC2(CC1)c1ccccc1C[S@+]2[O-])(c1ccc(Cl)c(Cl)c1)N(C)C(=O)Oc1ccccc1)C(=O)CC(F)(F)F [Compound No. 591, phenyl{1-(3,3,3-trifluoro-N-methylpropanamido)-2-(S)-(3,4-dichlorophenyl)-5-[spiro(benzo(c)thiophene-(2S)-oxido-1(3H),4′-piperidin)-1′-yl]pentan-2-yl}methylcarbamate hydrochloride]",6.9 nM
6,"CN(C[C@](CCCN1CCC2(CC1)c1ccccc1C[S@+]2[O-])(c1ccc(Cl)c(Cl)c1)N(C)C(=O)Oc1cccc(Cl)c1Cl)C(=O)CC(F)(F)F [Compound No. 653, 2,3-dichlorophenyl{1-(3,3,3-trifluoro-N-methylpropanamido)-2-(S)-(3,4-dichlorophenyl)-5-[spiro(benzo(c)thiophene-(2S)-oxido-1(3H),4′-piperidin)-1′-yl]pentan-2-yl}methylcarbamate hydrochloride]",1.6 nM
7,"CN(C[C@](CCCN1CCC2(CC1)c1ccccc1C[S@+]2[O-])(c1ccc(Cl)c(Cl)c1)N(C)C(=O)Oc1ccccc1)C(=O)C(F)(F)F [Compound No. 642, phenyl{1-(2,2,2-trifluoro-N-methylacetamide)-2-(S)-(3,4-dichlorophenyl)-5-[spiro(benzo(c)thiophene-(2S)-oxido-1(3H),4′-piperidin)-1′-yl]pentan-2-yl}methylcarbamate hydrochloride]",3.7 nM
8,"Cc1ccc(OC(=O)N(C)[C@](CCCN2CCC3(CC2)c2ccccc2C[S@+]3[O-])(CN(C)C(=O)CC(F)(F)F)c2ccc(Cl)c(Cl)c2)cc1 [Compound No. 652, 4-tolyl{1-(3,3,3-trifluoro-N-methylpropanamido)-2-(S)-(3,4-dichlorophenyl)-5-[spiro(benzo(c)thiophene-(2S)-oxido-1(3H),4′-piperidin)-1′-yl]pentan-2-yl}methylcarbamate hydrochloride]",2.7 nM
9,"COc1ccc(OC(=O)N(C)[C@](CCCN2CCC3(CC2)c2ccccc2C[S@+]3[O-])(CN(C)C(=O)CC(F)(F)F)c2ccc(Cl)c(Cl)c2)cc1 [Compound No. 640, 4-methoxyphenyl{1-(3,3,3-trifluoro-N-methylpropanamido)-2-(s)-(3,4-dichlorophenyl)-5-[spiro(benzo(c)thiophene-(2S)-oxido-1(3H),4′-piperidin)-1′-yl]pentan-2-yl}methylcarbamate hydrochloride]",6 nM

# Same assay, conditions: Table 2; inhibition of [3H]-Substance P (0.5 nM) binding to hNK1-CHO cells, pseudo-Hill analysis; read-out: NK-1
row,IC50,Structure (SMILES)
1,0.54 nM,"COc1cc(COC[C@](CCCN2CCC3(CC2)c2ccccc2C[S@+]3[O-])(c2ccc(Cl)c(Cl)c2)N(C)C(=O)NCc2ccccc2F)cc(OC)c1OC [Compound No. 617, 1-{1-(3,4,5-trimethoxybenzyloxy)-2-(S)-(3,4-dichlorophenyl)-5-[spiro(benzo(c)thiophene(2S)-oxido-1(3H),4′-piperidin)-1′-yl]pentan-2-yl}-3-(2-fluorobenzyl)-1-methylurea hydrochloride]"
2,1.2 nM,"COc1cc(COC[C@](CCCN2CCC3(CC2)c2ccccc2C[S@+]3[O-])(c2ccc(Cl)c(Cl)c2)N(C)C(=O)NCc2cccc(F)c2)cc(OC)c1OC [Compound No. 618, 1-{1-(3,4,5-trimethoxybenzyloxy)-2-(S)-(3,4-dichlorophenyl)-5-[spiro(benzo(c)thiophene(2S)-oxido-1(3H),4′-piperidin)-1′-yl]pentan-2-yl}-3-(3-fluorobenzyl)-1-methylurea hydrochloride]"
3,0.58 nM,"COc1cc(COC[C@](CCCN2CCC3(CC2)c2ccccc2C[S@+]3[O-])(c2ccc(Cl)c(Cl)c2)N(C)C(=O)Nc2cccc(F)c2)cc(OC)c1OC [Compound No. 615, 1-{1-(3,4,5-trimethoxybenzyloxy)-2-(S)-(3,4-dichlorophenyl)-5-[spiro(benzo(c)thiophene-(2S)-oxido-1(3H),4′-piperidin)-1′-yl]pentan-2-yl}-3-(3-fluorophenyl)-1-methylurea hydrochloride]"
4,0.94 nM,"COc1cc(COC[C@](CCCN2CCC3(CC2)c2ccccc2C[S@+]3[O-])(c2ccc(Cl)c(Cl)c2)N(C)C(=O)NCc2ccc(F)cc2)cc(OC)c1OC [Compound No. 621, 1-{1-(3,4,5-trimethoxybenzyloxy)-2-(S)-(3,4-dichlorophenyl)-5-[spiro(benzo(c)thiophene(2S)-oxido-1(3H),4′-piperidin)-1′-yl]pentan-2-yl}-3-(4-fluorobenzyl)-1-methylurea hydrochloride]"
5,2 nM,"COc1cc(COC[C@](CCCN2CCC3(CC2)c2ccccc2C[S@+]3[O-])(c2ccc(Cl)c(Cl)c2)N(C)C(=O)Nc2cccc(C(F)(F)F)c2)cc(OC)c1OC [Compound No. 616, 1-{1-(3,4,5-trimethoxybenzyloxy)-2-(S)-(3,4-dichlorophenyl)-5-[spiro(benzo(c)thiophene-(2S)-oxido-1(3H),4′-piperidin)-1′-yl]pentan-2-yl}-3-[3-(trifluoromethyl)phenyl]-1-methylurea hydrochloride]"
6,0.73 nM,"COc1cc(COC[C@](CCCN2CCC3(CC2)c2ccccc2C[S@+]3[O-])(c2ccc(Cl)c(Cl)c2)N(C)C(=O)NC2CCCCC2)cc(OC)c1OC [Compound No. 599, 1-{1-(3,4,5-trimethoxybenzyloxy)-2-(S)-(3,4-dichlorophenyl)-5-[spiro(benzo(c)thiophene-(2S)-oxido-1(3H),4′-piperidin)-1′-yl]pentan-2-yl}-3-cyclohexyl-1-methylurea hydrochloride]"

row,Structure (SMILES),IC50
1,"COc1cc(COCC(CCCN2CCC(C(N)=O)(c3ccccc3)CC2)(c2ccc(Cl)c(Cl)c2)N(C)C(=O)Nc2ccccc2)cc(OC)c1OC (racemic) [Compound No. 15, 1-[4-(3,4-Dichloro-phenyl)-4-(1-methyl-3-phenyl-ureido)-5-(3,4,5-trimethoxy-benzyloxy)-pentyl]-4-phenyl-piperidine-4-carboxylic acid amide]",0.9 nM
2,"COc1cc(C(=O)N(C)CC(CCN2CCC(C(N)=O)(c3ccccc3)CC2)(c2ccc(Cl)c(Cl)c2)N(C)C(=O)Oc2ccccc2)cc(OC)c1OC (racemic) [Compound No. 16, (3-(4-Carbamoyl-4-phenyl-piperidine-1-yl)-1-(3,4-dichloro-phenyl)-1-{[methyl-(3,4,5-trimethoxy-benzoyl)-amino]-methyl}-propyl)-methyl-carbamic acid phenyl ester hydrochloride]",3.5 nM
